In patent US10392363B2, “Methods for treating protozoan infections” (Neoculi Pty Ltd., priority 2014, dated 2019):

Assay: Microsomal stability, human
Type: in vitro ADME
Conditions: human, 1 μM
Procedure: Incubation methods: The metabolic stability assay was performed by incubating each test compound (at 1 μM) with human and mouse liver microsomes (Xenotech, Lot#1210057 and 1310211, respectively) at 37° C. and 0.4 mg/mL protein concentration. The metabolic reaction was initiated by the addition of an NADPH-regenerating system (i.e. NADPH is the cofactor required for CYP450-mediated metabolism) and quenched at various time points over a 60 minute incubation period by the addition of acetonitrile containing diazepam as internal standard. Control samples (containing no NADPH) were included (and quenched at 2, 30 and 60 minutes) to monitor for potential degradation in the absence of cofactor. Analytical conditions: Instrument: Waters Micromass Xevo G2 QTOF coupled to a Waters Acquity UPLC; Detection: Positive electrospray ionisation under MSE mode; Cone Voltage 30 V; Column: Ascentis Express Amide column (50×2.1 mm, 2.7 μm); LC conditions: Gradient cycle time: 4 minutes; Injection volume: 5 μL; Flow rate: 0.4 mL/min; Mobile phase: Acetonitrile-water gradient with 0.05% formic acid Metabolite; Identification: A metabolite screen was not included in this study, however, since data was acquired using MSE mode, which allows for the simultaneous acquisition of low and high collision energy MS spectra, a post-hoc metabolite search may be conducted at a later date if warranted. […]

For `N=C(N/N=C/c1ccc(Cl)cc1)N/N=C/c1ccc(Cl)cc1` [NCL812, 1,3-bis[(E)-(4-chlorophenyl)methyleneamino]guanidine], which “predicted hepatic extraction ratio (EH)” value is on record?
The value was < 0.3.
